Measured values as given in ChEMBL document CHEMBL5390321, “Transaminases Provide Key Chiral Building Blocks for the Synthesis of Selective M1/M4 Agonists” (ACS Med Chem Lett, 2023).

Columns and labels:
Type in all cases: functional, cell-based
[1] = target: T1, Muscarinic acetylcholine receptor M5 (Homo sapiens, UniProt P08912); test: Activation of human cloned muscarinic M5 receptor expressed in CHO-K1 cells by Calcium flux assay relative to control
T1 sequence (P08912 whole entry): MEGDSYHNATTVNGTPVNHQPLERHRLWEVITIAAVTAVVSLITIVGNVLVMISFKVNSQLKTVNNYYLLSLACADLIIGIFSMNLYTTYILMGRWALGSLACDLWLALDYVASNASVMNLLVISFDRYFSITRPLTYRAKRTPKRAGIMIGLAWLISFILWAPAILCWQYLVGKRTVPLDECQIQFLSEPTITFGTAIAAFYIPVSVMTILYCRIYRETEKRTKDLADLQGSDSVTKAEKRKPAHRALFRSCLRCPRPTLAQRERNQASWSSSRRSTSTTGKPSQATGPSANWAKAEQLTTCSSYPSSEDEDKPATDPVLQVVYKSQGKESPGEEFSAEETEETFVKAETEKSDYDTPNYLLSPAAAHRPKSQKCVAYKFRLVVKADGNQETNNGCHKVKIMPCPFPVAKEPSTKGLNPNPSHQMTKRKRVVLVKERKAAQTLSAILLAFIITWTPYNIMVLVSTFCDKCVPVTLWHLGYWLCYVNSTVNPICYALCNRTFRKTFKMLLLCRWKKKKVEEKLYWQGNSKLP

[2] = target: Muscarinic acetylcholine receptor M3 (Homo sapiens, UniProt P20309); test: Activation of human cloned muscarinic M3 receptor expressed in CHO-K1 cells by Calcium flux assay relative to control
[3] = target: T2, Muscarinic acetylcholine receptor M4 (Homo sapiens, UniProt P08173); test: Activation of human cloned muscarinic M4 receptor expressed in CHO-K1 cells by Calcium flux assay relative to control
T2 sequence (P08173 whole entry): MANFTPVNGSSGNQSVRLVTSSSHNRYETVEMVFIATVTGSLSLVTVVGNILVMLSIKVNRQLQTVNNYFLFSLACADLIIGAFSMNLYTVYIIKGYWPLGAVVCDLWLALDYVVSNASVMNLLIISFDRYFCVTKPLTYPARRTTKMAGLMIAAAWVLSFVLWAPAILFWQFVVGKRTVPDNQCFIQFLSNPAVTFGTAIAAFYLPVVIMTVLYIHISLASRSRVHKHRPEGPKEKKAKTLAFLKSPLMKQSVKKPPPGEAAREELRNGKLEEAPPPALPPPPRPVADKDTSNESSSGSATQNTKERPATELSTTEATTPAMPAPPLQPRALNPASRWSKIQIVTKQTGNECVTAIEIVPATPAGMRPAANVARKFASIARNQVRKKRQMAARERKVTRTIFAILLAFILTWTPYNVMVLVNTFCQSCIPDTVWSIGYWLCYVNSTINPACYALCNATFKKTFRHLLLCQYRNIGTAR

[4] = target: T3, Muscarinic acetylcholine receptor M2 (Homo sapiens, UniProt P08172); test: Activation of human cloned muscarinic M2 receptor expressed in CHO-K1 cells by Calcium flux assay
T3 sequence (P08172 whole entry): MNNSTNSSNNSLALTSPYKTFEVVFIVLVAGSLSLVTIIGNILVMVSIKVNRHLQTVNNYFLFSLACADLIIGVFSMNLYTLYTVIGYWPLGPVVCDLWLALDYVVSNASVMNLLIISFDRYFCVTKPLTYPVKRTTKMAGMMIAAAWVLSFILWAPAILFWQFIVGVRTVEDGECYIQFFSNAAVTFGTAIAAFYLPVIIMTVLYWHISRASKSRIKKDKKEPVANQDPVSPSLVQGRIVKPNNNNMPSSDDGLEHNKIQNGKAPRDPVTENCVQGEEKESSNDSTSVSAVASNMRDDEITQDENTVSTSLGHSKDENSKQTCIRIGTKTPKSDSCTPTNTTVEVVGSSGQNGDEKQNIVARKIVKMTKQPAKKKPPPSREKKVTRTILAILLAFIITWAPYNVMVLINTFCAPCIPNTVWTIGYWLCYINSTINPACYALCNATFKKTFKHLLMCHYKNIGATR

Muscarinic acetylcholine receptor M3, sequence (P20309 whole entry): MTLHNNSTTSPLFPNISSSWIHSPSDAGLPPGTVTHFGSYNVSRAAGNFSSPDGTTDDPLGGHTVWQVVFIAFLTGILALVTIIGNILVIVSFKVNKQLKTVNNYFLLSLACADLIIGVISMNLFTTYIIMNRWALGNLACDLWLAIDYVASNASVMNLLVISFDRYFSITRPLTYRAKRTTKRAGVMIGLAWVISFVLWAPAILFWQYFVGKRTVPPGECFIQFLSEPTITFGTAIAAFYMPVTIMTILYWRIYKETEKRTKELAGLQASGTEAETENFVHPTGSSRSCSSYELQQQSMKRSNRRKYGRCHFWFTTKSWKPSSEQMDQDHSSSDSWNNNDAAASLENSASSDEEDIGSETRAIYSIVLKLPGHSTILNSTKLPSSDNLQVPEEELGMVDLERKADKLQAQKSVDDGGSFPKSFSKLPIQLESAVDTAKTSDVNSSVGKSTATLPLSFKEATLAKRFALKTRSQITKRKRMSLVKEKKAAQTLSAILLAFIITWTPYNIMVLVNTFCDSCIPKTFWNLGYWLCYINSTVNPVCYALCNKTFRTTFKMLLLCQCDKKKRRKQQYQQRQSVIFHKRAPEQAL

Compound	EC50 [1] [µM]	EC50 [2] [µM]	EC50 [3] [µM]	EC50 [4] [µM]
COc1ccc(F)cc1C1CCN([C@@H]2CCC3(C2)CN(C(=O)C2COC2)C3)CC1	0.14	> 25	0.0017	–
COc1cc(F)ccc1C1CCN([C@@H]2COC3(C2)CN(C(=O)C2COC2)C3)CC1	> 25	> 25	–	–
CCOc1ccccc1C1CCN([C@@H]2CCC3(C2)CN(C(=O)C2COC2)C3)CC1	> 25	> 25	0.0065	0.21
COc1ccc(F)cc1C1CCN([C@@H]2COC3(C2)CN(C(=O)C2COC2)C3)CC1	> 25	> 25	–	–
CCOc1ccccc1C1CCN([C@@H]2CCC3(C2)CN(C(=O)CC)C3)CC1	> 25	> 25	–	–
COc1ccccc1C1CCN(C2CCC3(C2)CN(C(=O)C2COC2)C3)CC1 (single isomer, unassigned)	–	> 25	–	–

Now from value to compound:

EC50 [1] [µM]	EC50 [2] [µM]	EC50 [3] [µM]	EC50 [4] [µM]	Compound
> 25	> 25	–	–	COc1ccccc1C1CCN([C@@H]2COC3(C2)CN(C(=O)C2COC2)C3)CC1
–	> 25	–	–	CCOc1ccccc1C1CCN([C@@H]2CCC3(C2)CN(C(C)=O)C3)CC1
> 25	> 25	0.0093	–	COc1cc(F)ccc1C1CCN([C@@H]2CCC3(C2)CN(C(=O)C2COC2)C3)CC1
–	0.11	–	–	CCCCCCOc1nsnc1C1=CCCN(C)C1 [XANOMELINE]
